For orientation: pIC50 means the negative decadic logarithm of the IC50, by convention in mol/L.

This passage reports IC50 results from patent publication US10821115B2, “Compounds that inhibit Mcl-1 protein” (priority 2017, dated 2020).

The target of experiment [1] is recombinant human Mcl-1 (residues 171-327) / Bim interaction (Homo sapiens (Human), UniProt Q07820). Briefly: biochemical. The note with it: read-out: Mcl-1 HTRF IC50. The class given is binding.
For experiment [2], the system named is human multiple myeloma cell line, OPM-2. Briefly: Cell viability assay (OPM-2 10 FBS), CellTiter-Glo. The class given is cell-based. In outline: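 3000 cells/well, RPMI 1640 + 10% FBS; serial compound dilutions, 16 h, 37 °C/5% CO2.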
On the technique in general: ATP-based viability assays read luminescence as a measure of living cells.

The mark [3] stands for this setting: 0.1 nM Mcl-1(171-327), 0.05 nM biotin-Bim (51-76).
The mark [4] stands for this setting: Homo sapiens, OPM-2, 16 h, read-out: OPM-2 10% FBS IC50 IP, OPM-2 cells, 10% FBS, 16 h incubation.
The mark [5] stands for this setting: TR-FRET, Mcl-1(171-327) / biotin-Bim (51-76).
Where [6] appears, read: read-out: OPM-2 10% FBS IC50 IP, OPM-2 cells, 10% FBS, 16 h, CellTiter-Glo.
[7] abbreviates: Homo sapiens, OPM-2, 16 h, read-out: OPM-2 10% FBS IC50 IP, OPM-2 cells, 10% FBS, 16 h, CellTiter-Glo.

The structures appear in SMILES notation. pIC50: −log10 of the molar value. Like-named read-outs stand apart in the source and are kept apart here.

Chain of recombinant human Mcl-1 (residues 171-327) / Bim interaction (Q07820 171-327): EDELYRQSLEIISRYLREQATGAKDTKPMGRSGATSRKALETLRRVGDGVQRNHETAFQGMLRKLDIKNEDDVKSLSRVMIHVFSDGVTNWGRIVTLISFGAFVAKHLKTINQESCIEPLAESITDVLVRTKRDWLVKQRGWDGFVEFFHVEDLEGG

Consider `CO[C@]1(CN2CCC(N3CCOCC3)CC2)/C=C/C[C@H](C)[C@@H](C)S(=O)(=O)NC(=O)c2ccc3c(c2)N(C[C@@H]2CC[C@H]21)C[C@@]1(CCCc2cc(Cl)ccc21)CO3` [Example 85, (1S,3′R,6′R,7′R,8′E,11′S,12′R)-6-chloro-7′-methoxy-11′,12′-dimethyl-7′-((4-(4-morpholinyl)-1-piperidinyl)methyl)-3,4-dihydro-2H,15′H-spiro[naphthalene-1,22′-[20]oxa[13]thia[1,14]diazatetracyclo [14.7.2.0~3,6~.0~19,24~]pentacosa[8,16,18,24]tetraen]-15′-one 13′,13′-dioxide], for which the pIC50 in experiment [1] (setting [3]) is 9.31; in experiment [2] (setting [4]), 6.56.
On the same counts, the results for `CO[C@@]1(CN2CCN(C(C)(C)C)CC2)/C=C/C[C@H](C)[C@@H](C)S(=O)(=O)NC(=O)c2ccc3c(c2)N(C[C@@H]2CC[C@H]21)C[C@@]1(CCCc2cc(Cl)ccc21)CO3` [Example 335, (1S,3′R,6′R,7′S,8′E,11′S,12′R)-7′-((4-tert-butyl-1-piperazinyl)methyl)-6-chloro-7′-methoxy-11′,12′-dimethyl-3,4-dihydro-2H,15′H-spiro[naphthalene-1,22′-[20]oxa[13]thia[1,14]diazatetracyclo [14.7.2.0~3,6~.0~19,24~]pentacosa[8,16,18,24]tetraen]-15′-one 13′,13′-dioxide] are 9.83 and 6.88.
Turning to `C[C@@H]1[C@@H](C)CCC[C@@](O)([C@@H]2CCN(C)C2=O)[C@@H]2CC[C@H]2CN2C[C@@]3(CCCc4cc(Cl)ccc43)COc3ccc(cc32)C(=O)NS1(=O)=O` [Example 100204, (1S,3′R,6′R,7′S,11′S,12′R)-6-chloro-7′-hydroxy-11′,12′-dimethyl-7′-((3S)-1-methyl-2-oxo-3-pyrrolidinyl)-3,4-dihydro-2H,15′H-spiro[naphthalene-1,22′-[20]oxa[13]thia[1,14]diazatetracyclo [14.7.2.0~3,6~.0~19,24~]pentacosa[16,18,24]trien]-15′-one 13′,13′-dioxide], the pIC50 is 8.78 in experiment [1] (setting [5]) and 5.28 in experiment [2] (setting [6]).
On to `CO[C@@]1(CN2CCN(C3(C)COC3)CC2)/C=C/C[C@H](C)[C@@H](C)S(=O)(=O)NC(=O)c2ccc3c(c2)N(C[C@@H]2CC[C@H]21)C[C@@]1(CCCc2cc(Cl)ccc21)CO3` [Example 268, (1S,3′R,6′R,7′S,8′E,11′S,12′R)-6-chloro-7′-methoxy-11′,12′-dimethyl-7′-((4-(3-methyl-3-oxetanyl)-1-piperazinyl)methyl)-3,4-dihydro-2H,15′H-spiro[naphthalene-1,22′-[20]oxa[13]thia[1,14]diazatetracyclo [14.7.2.0~3,6~.0~19,24~]pentacosa[8,16,18,24]tetraen]-15′-one 13′,13′-dioxide], for which the pIC50 in experiment [1] (setting [3]) is 10.19; in experiment [2] (setting [4]), 7.14.
Turning to `COC(OC)c1cncc([C@]2(O)/C=C/C[C@H](C)[C@@H](C)S(=O)(=O)NC(=O)c3ccc4c(c3)N(C[C@@H]3CC[C@H]32)C[C@@]2(CCCc3cc(Cl)ccc32)CO4)c1` (single isomer, unassigned) [Example 100510], the pIC50 in experiment [1] (setting [5]) was 10.15; in experiment [2] (setting [7]), 6.42.
As for `CO[C@H](C)[C@]1(OC)/C=C/C[C@H](C)[C@@H](C)S(=O)(=O)NC(=O)c2ccc3c(c2)N(C[C@@H]2CC[C@H]21)C[C@@]1(CCCc2cc(Cl)ccc21)CO3` [Example 100475, (1S,3′R,6′R,7′S,8′E,11′S,12′R)-6-chloro-7′-methoxy-7′-((1R)-1-methoxyethyl)-11′,12′-dimethyl-3,4-dihydro-2H,15′H-spiro[naphthalene-1,22′-[20]oxa[13]thia[1,14]diazatetracyclo [14.7.2.0~3,6~.0~19,24~]pentacosa[8,16,18,24]tetraen]-15′-one 13′,13′-dioxide], the pIC50 in experiment [1] (setting [5]) is 8.86; in experiment [2] (setting [6]), 5.57.
`CO[C@@]1([C@@H](C)O)/C=C/C[C@H](C)[C@@H](C)S(=O)(=O)NC(=O)c2ccc3c(c2)N(C[C@@H]2CC[C@H]21)C[C@@]1(CCCc2cc(Cl)ccc21)CO3` (stereo in doubt) [Example 100487]: the pIC50 in experiment [1] (setting [5]) was 9.36; in experiment [2] (setting [7]), 6.47.
As to `C[C@@H]1[C@@H](C)CCC[C@@](O)(COS(C)(=O)=O)[C@@H]2CC[C@H]2CN2C[C@@]3(CCCc4cc(Cl)ccc43)COc3ccc(cc32)C(=O)NS1(=O)=O` [Example 100283, ((1S,3′R,6′R,7′S,11′S,12′R)-6-chloro-7′-hydroxy-11′,12′-dimethyl-13′,13′-dioxido-15′-oxo-3,4-dihydro-2H-spiro[naphthalene-1,22′-[20]oxa[13]thia[1,14]diazatetracyclo [14.7.2.0~3,6~.0~19,24~]pentacosa[16,18,24]trien]-7′-yl)methyl methanesulfonate], the negative logarithm of the IC50 (pIC50) was 9.84 in experiment [1] and 6.09 in experiment [2] (setting [6]).
In the case of `C[C@@H]1[C@@H](C)CCC[C@@](O)(CCN2CCOCC2)[C@@H]2CC[C@H]2CN2C[C@@]3(CCCc4cc(Cl)ccc43)COc3ccc(cc32)C(=O)NS1(=O)=O` [Example 100096, (1S,3′R,6′R,7′R,11′S,12′R)-6-chloro-7′-hydroxy-11′,12′-dimethyl-7′-(2-(4-morpholinyl)ethyl)-3,4-dihydro-2H,15′H-spiro[naphthalene-1,22′-[20]oxa[13]thia[1,14]diazatetracyclo [14.7.2.0~3,6~.0~19,24~]pentacosa[16,18,24]trien]-15′-one 13′,13′-dioxide], the pIC50 in experiment [1] (setting [5]) is 9.20; in experiment [2] (setting [6]), 6.29.
For `C[C@@H]1[C@@H](C)CCC[C@](O)(CC(=O)Nc2ccncn2)[C@@H]2CC[C@H]2CN2C[C@@]3(CCCc4cc(Cl)ccc43)COc3ccc(cc32)C(=O)NS1(=O)=O` [Example 100174, 2-((1S,3′R,6′R,7′S,11′S,12′R)-6-chloro-7′-hydroxy-11′,12′-dimethyl-13′,13′-dioxido-15′-oxo-3,4-dihydro-2H-spiro[naphthalene-1,22′-[20]oxa[13]thia[1,14]diazatetracyclo [14.7.2.0~3,6~.0~19,24~]pentacosa[16,18,24]trien]-7′-yl)-N-4-pyrimidinylacetamide], the pIC50 is 8.69 in experiment [1] (setting [5]) and 5.72 in experiment [2] (setting [7]).
Regarding `CCO[C@]1(CN2CCN(C(C)(C)C)CC2)/C=C/C[C@H](C)[C@@H](CCOC)S(=O)(=O)NC(=O)c2ccc3c(c2)N(C[C@@H]2CC[C@H]21)C[C@@]1(CCCc2cc(Cl)ccc21)CO3` [Example 190, (1S,3′R,6′R,7′R,8′E,11′S,12′R)-7′-((4-tert-butyl-1-piperazinyl)methyl)-6-chloro-7′-ethoxy-12′-(2-methoxyethyl)-11′-methyl-3,4-dihydro-2H,15′H-spiro[naphthalene-1,22′-[20]oxa[13]thia[1,14]diazatetracyclo [14.7.2.0~3,6~.0~19,24~]pentacosa[8,16,18,24]tetraen]-15′-one 13′,13′-dioxide], the pIC50 in experiment [1] (setting [3]) is 10.06; in experiment [2] (setting [4]) it was 7.28.
Consider `C[C@H](C(=O)O)[C@@]1(O)/C=C/C[C@H](C)[C@@H](C)S(=O)(=O)NC(=O)c2ccc3c(c2)N(C[C@@H]2CC[C@H]21)C[C@@]1(CCCc2cc(Cl)ccc21)CO3` (single isomer, unassigned) [Example 100122], for which the negative logarithm of the IC50 (pIC50) in experiment [1] (setting [5]) is 10.01; in experiment [2] (setting [6]), 5.92.
Turning to `C[C@@H]1[C@@H](C)C/C=C/[C@@](O)([C@@H]2CCN(C)C2=O)[C@@H]2CC[C@H]2CN2C[C@@]3(CCCc4cc(Cl)ccc43)COc3ccc(cc32)C(=O)NS1(=O)=O` [Example 100109, (1S,3′R,6′R,7′S,8′E,11′S,12′R)-6-chloro-7′-hydroxy-11′,12′-dimethyl-7′-((3S)-1-methyl-2-oxo-3-pyrrolidinyl)-3,4-dihydro-2H,15′H-spiro[naphthalene-1,22′-[20]oxa[13]thia[1,14]diazatetracyclo [14.7.2.0~3,6~.0~19,24~]pentacosa[8,16,18,24]tetraen]-15′-one 13′,13′-dioxide], the pIC50 in experiment [1] (setting [5]) was 9.31; in experiment [2] (setting [6]), 5.67.
On to `C[C@@H]1[C@@H](C)CCC[C@](O)(CC(=O)N2CCN(C)CC2)[C@@H]2CC[C@H]2CN2C[C@@]3(CCCc4cc(Cl)ccc43)COc3ccc(cc32)C(=O)NS1(=O)=O` (single isomer, unassigned) [Example 100168], for which the pIC50 in experiment [1] (setting [5]) was 9.60; in experiment [2] (setting [7]), 6.71.
On the same counts, the results for `C[C@@H]1[C@@H](C)C/C=C/[C@@](O)(c2cccnc2)[C@@H]2CC[C@H]2CN2C[C@@]3(CCCc4cc(Cl)ccc43)COc3ccc(cc32)C(=O)NS1(=O)=O` [Example 100384, (1S,3′R,6′R,7′S,8′E,11′S,12′R)-6-chloro-7′-hydroxy-11′,12′-dimethyl-7′-(3-pyridinyl)-3,4-dihydro-2H,15′H-spiro[naphthalene-1,22′-[20]oxa[13]thia[1,14]diazatetracyclo [14.7.2.0~3,6~.0~19,24~]pentacosa[8,16,18,24]tetraen]-15′-one 13′,13′-dioxide] are 9.09 and 6.14.
Turning to `CO[C@@]1(CN2CCN(c3cnccn3)CC2)/C=C/C[C@H](C)[C@@H](C)S(=O)(=O)NC(=O)c2ccc3c(c2)N(C[C@@H]2CC[C@H]21)C[C@@]1(CCCc2cc(Cl)ccc21)CO3` [Example 257, (1S,3′R,6′R,7′S,8′E,11′S,12′R)-6-chloro-7′-methoxy-11′,12′-dimethyl-7′-((4-(2-pyrazinyl)-1-piperazinyl)methyl)-3,4-dihydro-2H,15′H-spiro[naphthalene-1,22′-[20]oxa[13]thia[1,14]diazatetracyclo [14.7.2.0~3,6~.0~19,24~]pentacosa[8,16,18,24]tetraen]-15′-one 13′,13′-dioxide], the results for the pIC50 in experiment [1] (setting [3]) and in experiment [2] (setting [4]) were 9.39 and 6.01, respectively.
